Tested on: 429239-143-T-J1-PDC complex spheroid viability
Assay: Anticancer human tumor 429239-143-T-J1-PDC patient-derived small cell lung carcinoma cell line growth inhibition [POLQ]
Settings: for IC50: curve of first compound; for viability, T/C: stronger effect = lower value
Protocol: Multicellular complex tumor spheroid response to Polymerase (POL) inhibitors (novobiocin, ART-558, RP6685) in combination with a variety of drugs and investigational agents in selected tumor cell lines
The POL inhibitors (novobiocin, ART-558, and RP6685) were evaluated both individually and in combination with standard of care and investigational anticancer small molecules within a complex spheroid model of solid tumors. . Complex spheroids include a stromal component modeled by human endothelial cells (HUVEC) and fibroblasts modeled by human mesenchymal stem cells (MSCs). The concentration ranges selected for each drug and investigational agent were based upon clinically achievable concentrations if the clinical Cmax of the agent was known.
Compounds. The drugs and investigational agents: novobiocin (NSC847541), ART-558 (NSC835418), RP-6685 (NSC848927), peposertib (NSC802822), ceralasertib (NSC780249), elimusertib (NSC800525), camonsertib (NSC841442), AZD-1390 (NSC803789), olaparib (NSC753686), talazoparib (NSC767125), rucaparib (NSC756644), sotorasib (NSC818433), MRTX-1133 (NSC836407), SN-38 (NSC673596), topotecan (NSC609699), epotoside (NSC141540), doxorubicin (NSC123127), gemcitabine (NSC613327), 5-fluorouracil (NSC19893), paclitaxel (NSC125973), vemurafenib (NSC761431), MSA-2 (NSC828583), SN-011 (NSC837082), adavosertib (NSC754352), prexasertib (NSC758257), carboplatin (NSC241240) and oxaliplatin (NSC266046), were obtained from the National Cancer Institute (NCI) Developmental Therapeutics Program Chemical Repository (21). The FDA-approved anticancer drug set is available from the Developmental Therapeutics Program at https://dtp.cancer.gov/organization/dscb/obtaining/. […] The stock solutions were prepared in dimethyl sulfoxide (DMSO, Sigma-Aldrich, St. Louis, MO, cat. D2650), except for the platinum compounds which were prepared in saline (Quality Biological, Gaithersburg, MD, cat. 114-055-101), at 800-fold the tested concentration and stored at -70 degrees C prior to their use. All drugs and investigational agents were tested over a range starting from a high concentration at or near the clinical Cmax and decreasing in half-log increments. If the clinical Cmax for an agent had not been determined, the highest concentration tested was 10 microM, except for SN-38, which was tested at a high concentration of 1 microM.
Cell Culture. All cells were maintained in an incubator at 37 degrees C and 5% CO2 with 95% humidity. The PDC lines were cultured according to standard operating procedures established by the NCI PDMR (https://pdmr.cancer.gov). Table 3 of the manuscript, lists the cell lines along with the number of the three cell types plated to form the mct-spheroids and media for tumor cell growth. After thawing, all PDC lines, except 997537-175-T-J1-PDC and 415267-285-R-J2-PDC, were cultured in Matrigel-coated flasks prepared with a working solution of 1X Ham's F-12 nutrient mix, without supplementation (Thermo Fisher Scientific, cat. 11765054), 100 U/mL penicillin-streptomycin (Thermo Fisher Scientific, cat. 15140122), and 2.5% Matrigel (Corning Inc., Corning, NY, cat. 354248) for the first three passages. The two PDC lines 997537-175-T-J1-PDC and 415267-285-R-J2-PDC were cultured on uncoated flasks. The 857933-349-R-J2-PDC line was cultured in 6C/Colon 1B media containing advanced DMEM/F-12 (Thermo Fisher Scientific, cat. 12634028), 10 mM HEPES (Thermo Fisher Scientific, cat. 15630080), 1X GlutaMAX supplement (Thermo Fisher Scientific, cat. 35050061), 0.1 mg/mL primocin (InvivoGen, San Diego, CA, cat. ant-pm-2), 10% defined fetal bovine serum, heat inactivated (HyClone Laboratories Inc., Logan, UT, cat. SH30070.03HI), 50% L-WRN conditioned media (ATCC, cat. CRL-3276), 1.25 mM N-Acetyl-L-cysteine (Sigma-Aldrich, cat. A9165), 10 mM nicotinamide (Sigma-Aldrich, cat. N0636), 1X B-27 supplement (Thermo Fisher Scientific, cat. 17504044), 1X N-2 supplement (Thermo Fisher Scientific, cat. […]

[1] = second compound 0.0316 µM, first compound 0.0316 µM
[2] = second compound 0.0316 µM, first compound 0.1 µM
[3] = second compound 0.0316 µM, first compound 0.316 µM
[4] = second compound 0.0316 µM, first compound 1 µM
[5] = second compound 0.1 µM, first compound 0.0316 µM
[6] = second compound 0.1 µM, first compound 0.1 µM
[7] = second compound 0.1 µM, first compound 0.316 µM
[8] = second compound 0.1 µM, first compound 1 µM
[9] = second compound 0.316 µM, first compound 0.0316 µM
[10] = second compound 0.316 µM, first compound 0.1 µM
[11] = second compound 0.316 µM, first compound 0.316 µM
[12] = second compound 0.316 µM, first compound 1 µM
[13] = second compound 1 µM, first compound 0.0316 µM
[14] = second compound 1 µM, first compound 0.1 µM
[15] = second compound 1 µM, first compound 0.316 µM
[16] = second compound 1 µM, first compound 1 µM
[17] = second compound 3.16 µM, first compound 0.0316 µM
[18] = second compound 3.16 µM, first compound 0.1 µM
[19] = second compound 3.16 µM, first compound 0.316 µM
[20] = second compound 3.16 µM, first compound 1 µM
[21] = second compound 10 µM, first compound 0.0316 µM
[22] = second compound 10 µM, first compound 0.1 µM
[23] = second compound 10 µM, first compound 0.316 µM
[24] = second compound 10 µM, first compound 1 µM
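Note: luminescence signal used as surrogate measure of viable cells; spheroids exposed to compounds for seven days before readout.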
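Throughout, for viability, T/C: 100% = DMSO vehicle control viability as luminescence relative to vehicle.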

## C=CC(=O)N1CCN(c2nc(=O)n(-c3c(C)ccnc3C(C)C)c3nc(-c4c(O)cccc4F)c(F)cc23)C(C)C1 (centres undefined) + Nc1ccc(C#CCN(C(=O)Cc2ncc(C(F)(F)F)cc2C(F)(F)F)c2ccc(F)cc2)nn1
Second compound 0.0316 µM
  IC50: > 10000 nM
Second compound 0.1 µM
  IC50: > 10000 nM
Second compound 0.316 µM
  IC50: > 10000 nM
Second compound 1 µM
  IC50: > 10000 nM
Second compound 3.16 µM
  IC50: > 10000 nM
Second compound 10 µM
  IC50: > 10000 nM
[1]
  viability, T/C: 101%
[2]
  viability, T/C: 97.2%
[3]
  viability, T/C: 97.2%
[4]
  viability, T/C: 114%
Second compound 0.0316 µM, first compound 3.16 µM
  viability, T/C: 108%
Second compound 0.0316 µM, first compound 10 µM
  viability, T/C: 93.8%
[5]
  viability, T/C: 97.7%
[6]
  viability, T/C: 113%
[7]
  viability, T/C: 108%
[8]
  viability, T/C: 114%
Second compound 0.1 µM, first compound 3.16 µM
  viability, T/C: 102%
Second compound 0.1 µM, first compound 10 µM
  viability, T/C: 96.8%
[9]
  viability, T/C: 108%
[10]
  viability, T/C: 97.6%
[11]
  viability, T/C: 99.6%
[12]
  viability, T/C: 103%
Second compound 0.316 µM, first compound 3.16 µM
  viability, T/C: 109%
Second compound 0.316 µM, first compound 10 µM
  viability, T/C: 94.1%
[13]
  viability, T/C: 98.9%
[14]
  viability, T/C: 103%
[15]
  viability, T/C: 99.3%
[16]
  viability, T/C: 112%
Second compound 1 µM, first compound 3.16 µM
  viability, T/C: 98.4%
Second compound 1 µM, first compound 10 µM
  viability, T/C: 91.8%
[17]
  viability, T/C: 107%
[18]
  viability, T/C: 105%
[19]
  viability, T/C: 109%
[20]
  viability, T/C: 115%
Second compound 3.16 µM, first compound 3.16 µM
  viability, T/C: 104%
Second compound 3.16 µM, first compound 10 µM
  viability, T/C: 97.3%
[21]
  viability, T/C: 104%
[22]
  viability, T/C: 98.8%
[23]
  viability, T/C: 111%
[24]
  viability, T/C: 108%
Second compound 10 µM, first compound 3.16 µM
  viability, T/C: 95.7%
Second compound 10 µM, first compound 10 µM
  viability, T/C: 96.8%

## C=CCn1c(=O)c2cnc(Nc3ccc(N4CCN(C)CC4)cc3)nc2n1-c1cccc(C(C)(C)O)n1 + Nc1ccc(C#CCN(C(=O)Cc2ncc(C(F)(F)F)cc2C(F)(F)F)c2ccc(F)cc2)nn1
Second compound 0.0316 µM
  IC50: 584 nM
Second compound 0.1 µM
  IC50: 624 nM
Second compound 0.316 µM
  IC50: 599 nM
Second compound 1 µM
  IC50: 578 nM
Second compound 3.16 µM
  IC50: 576 nM
Second compound 10 µM
  IC50: 548 nM
Second compound 0.0316 µM, first compound 0.00316 µM
  viability, T/C: 95.7%
Second compound 0.0316 µM, first compound 0.01 µM
  viability, T/C: 97.4%
[1]
  viability, T/C: 106%
[2]
  viability, T/C: 101%
[3]
  viability, T/C: 88.1%
[4]
  viability, T/C: 16.3%
Second compound 0.1 µM, first compound 0.00316 µM
  viability, T/C: 99.1%
Second compound 0.1 µM, first compound 0.01 µM
  viability, T/C: 103%
[5]
  viability, T/C: 96.6%
[6]
  viability, T/C: 103%
[7]
  viability, T/C: 95%
[8]
  viability, T/C: 18.7%
Second compound 0.316 µM, first compound 0.00316 µM
  viability, T/C: 106%
Second compound 0.316 µM, first compound 0.01 µM
  viability, T/C: 110%
[9]
  viability, T/C: 108%
[10]
  viability, T/C: 101%
[11]
  viability, T/C: 94%
[12]
  viability, T/C: 15.2%
Second compound 1 µM, first compound 0.00316 µM
  viability, T/C: 111%
Second compound 1 µM, first compound 0.01 µM
  viability, T/C: 109%
[13]
  viability, T/C: 97.8%
[14]
  viability, T/C: 105%
[15]
  viability, T/C: 89.3%
[16]
  viability, T/C: 14%
Second compound 3.16 µM, first compound 0.00316 µM
  viability, T/C: 109%
Second compound 3.16 µM, first compound 0.01 µM
  viability, T/C: 101%
[17]
  viability, T/C: 100%
[18]
  viability, T/C: 103%
[19]
  viability, T/C: 90.3%
[20]
  viability, T/C: 12.9%
Second compound 10 µM, first compound 0.00316 µM
  viability, T/C: 106%
Second compound 10 µM, first compound 0.01 µM
  viability, T/C: 99.7%
[21]
  viability, T/C: 122%
[22]
  viability, T/C: 101%
[23]
  viability, T/C: 84%
[24]
  viability, T/C: 13.3%

— PubChem BioAssay AID1963845 (Molecular Pharmacology Branch, DTP, NCI, 2024)
